Measured values from US20250197372A1 (priority 2020, published 2025).

Tests used:
[1] = biological target: T1, recombinant alpha-glucosidase I (human full-length glucosidase I, Glu 1) (Homo sapiens, UniProt Q13724); test: Alpha-glucosidase I assay (Amplex Red glucose detection, synthetic trisaccharide substrate); type: biochemical; conditions: Glucosidase 1; read-out: Glu 1 IC50
T1 construct: 6-His (C); made in house; host or cells: HEK-293T cells transduced with BacMam virus (virus raised in Sf9)
T1 sequence (Q13724 1-837): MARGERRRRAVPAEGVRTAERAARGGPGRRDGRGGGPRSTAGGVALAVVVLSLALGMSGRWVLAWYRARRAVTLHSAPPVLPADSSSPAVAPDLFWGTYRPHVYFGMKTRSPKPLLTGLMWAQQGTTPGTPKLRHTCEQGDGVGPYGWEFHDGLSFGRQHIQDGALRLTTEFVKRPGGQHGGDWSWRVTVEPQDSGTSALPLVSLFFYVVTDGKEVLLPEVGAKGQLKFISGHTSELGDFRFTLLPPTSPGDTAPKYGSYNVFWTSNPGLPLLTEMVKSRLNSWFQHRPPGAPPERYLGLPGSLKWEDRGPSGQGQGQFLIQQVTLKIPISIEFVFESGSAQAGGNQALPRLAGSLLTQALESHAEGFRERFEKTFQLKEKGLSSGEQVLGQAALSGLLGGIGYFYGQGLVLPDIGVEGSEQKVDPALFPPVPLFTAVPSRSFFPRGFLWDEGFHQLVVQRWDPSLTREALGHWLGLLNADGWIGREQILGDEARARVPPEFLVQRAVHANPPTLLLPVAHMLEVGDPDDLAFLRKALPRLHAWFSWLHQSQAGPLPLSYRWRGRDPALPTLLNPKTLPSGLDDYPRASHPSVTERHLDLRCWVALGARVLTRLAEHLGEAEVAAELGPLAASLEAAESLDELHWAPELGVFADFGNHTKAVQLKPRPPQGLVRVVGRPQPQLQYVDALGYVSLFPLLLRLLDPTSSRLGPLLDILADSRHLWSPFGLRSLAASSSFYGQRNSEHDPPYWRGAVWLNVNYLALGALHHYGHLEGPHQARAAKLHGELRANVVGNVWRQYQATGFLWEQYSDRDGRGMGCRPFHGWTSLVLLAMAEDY
Procedure, shortened: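 Compound dilution series incubated 60 min at 37° C with recombinant His-tagged human glucosidase I ([…]), after which trisaccharide substrate analog was added for 90 min at 37° C. Reaction quenched with 1.5M Tris pH 8; D-glucose detected by Amplex Red fluorescence, 560/590 nm. 4-PL curve fit of percent inhibition gave IC50.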

[2] = biological target: rat sucrase (partially purified alpha-glucosidase from intestinal rat powder) (Rattus norvegicus, UniProt P23739); test: Intestinal alpha-glucosidase assay, sucrose substrate (Glucose GO Kit); type: biochemical
rat sucrase (partially purified alpha-glucosidase from intestinal rat powder), sequence (P23739 whole entry): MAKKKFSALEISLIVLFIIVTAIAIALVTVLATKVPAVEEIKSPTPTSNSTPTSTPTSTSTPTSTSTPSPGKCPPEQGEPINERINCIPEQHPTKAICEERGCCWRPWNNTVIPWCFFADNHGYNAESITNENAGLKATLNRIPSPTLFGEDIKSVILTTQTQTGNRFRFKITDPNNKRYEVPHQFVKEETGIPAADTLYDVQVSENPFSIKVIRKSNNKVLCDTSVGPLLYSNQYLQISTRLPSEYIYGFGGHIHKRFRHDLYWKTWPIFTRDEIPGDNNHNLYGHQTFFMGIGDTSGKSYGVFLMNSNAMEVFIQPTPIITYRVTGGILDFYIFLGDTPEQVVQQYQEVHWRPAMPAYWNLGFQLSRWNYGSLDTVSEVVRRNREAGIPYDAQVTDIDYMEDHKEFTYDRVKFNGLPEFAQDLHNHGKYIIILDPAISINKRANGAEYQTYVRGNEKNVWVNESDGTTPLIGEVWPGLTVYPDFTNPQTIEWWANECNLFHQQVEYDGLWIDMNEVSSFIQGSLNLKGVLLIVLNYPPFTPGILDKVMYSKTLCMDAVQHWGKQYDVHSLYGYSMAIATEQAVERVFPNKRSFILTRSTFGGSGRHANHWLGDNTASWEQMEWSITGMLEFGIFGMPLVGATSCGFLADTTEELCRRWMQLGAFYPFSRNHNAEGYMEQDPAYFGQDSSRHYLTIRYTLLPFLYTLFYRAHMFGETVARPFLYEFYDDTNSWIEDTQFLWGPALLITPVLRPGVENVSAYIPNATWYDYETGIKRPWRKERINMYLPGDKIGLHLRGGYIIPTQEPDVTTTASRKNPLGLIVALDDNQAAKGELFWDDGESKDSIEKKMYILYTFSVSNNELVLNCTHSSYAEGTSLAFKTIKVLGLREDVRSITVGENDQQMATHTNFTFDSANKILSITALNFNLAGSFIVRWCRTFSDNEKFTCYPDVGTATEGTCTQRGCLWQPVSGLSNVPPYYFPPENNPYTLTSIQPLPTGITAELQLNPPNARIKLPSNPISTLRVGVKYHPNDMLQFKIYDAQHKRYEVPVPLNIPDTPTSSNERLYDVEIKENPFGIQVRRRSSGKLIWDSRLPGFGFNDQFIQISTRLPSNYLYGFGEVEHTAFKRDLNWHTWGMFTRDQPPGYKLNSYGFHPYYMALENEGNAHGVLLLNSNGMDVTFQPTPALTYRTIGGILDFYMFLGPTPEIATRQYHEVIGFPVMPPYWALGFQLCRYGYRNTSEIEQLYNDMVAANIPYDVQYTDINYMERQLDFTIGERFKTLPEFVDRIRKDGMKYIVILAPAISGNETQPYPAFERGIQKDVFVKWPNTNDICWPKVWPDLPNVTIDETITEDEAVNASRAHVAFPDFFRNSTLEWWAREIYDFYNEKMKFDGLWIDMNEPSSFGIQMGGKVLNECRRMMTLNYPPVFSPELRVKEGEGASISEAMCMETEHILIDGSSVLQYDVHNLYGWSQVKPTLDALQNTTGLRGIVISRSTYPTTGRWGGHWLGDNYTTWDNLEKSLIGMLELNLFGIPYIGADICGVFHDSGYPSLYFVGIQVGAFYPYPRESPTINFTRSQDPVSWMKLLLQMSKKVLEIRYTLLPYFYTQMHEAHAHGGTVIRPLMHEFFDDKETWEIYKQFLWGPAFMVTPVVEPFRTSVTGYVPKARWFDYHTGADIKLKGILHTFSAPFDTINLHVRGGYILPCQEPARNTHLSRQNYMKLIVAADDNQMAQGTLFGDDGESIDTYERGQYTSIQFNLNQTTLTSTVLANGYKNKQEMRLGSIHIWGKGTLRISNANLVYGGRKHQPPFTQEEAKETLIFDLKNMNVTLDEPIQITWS
Procedure, shortened: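 Partially purified alpha-glucosidase from rat intestinal powder was preincubated 60 min at 37 °C with serial compound dilutions, then given maltose or sucrose and incubated 30 min at 37 °C.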

| SMILES | IC50 [1] [nM] | IC50 [2] [nM] |
| --- | --- | --- |
| O=[N+]([O-])c1cc(N2CC3CC2CO3)ccc1NCc1ccc(CN2C[C@@H](O)[C@H](O)[C@@H](O)[C@@H]2CO)cc1 (stereo in doubt) [Compound 1015, (2S,3S,4S,5R)-2-(hydroxymethyl)-1-[(4-{[(2-nitro-4-{2-oxa-5-azabicyclo[2.2.1]heptan-5-yl}phenyl)amino]methyl}phenyl)methyl]piperidine-3,4,5-triol] | 9 | 78 |
| CN(Cc1cccc(CN2C[C@H](O)[C@@H](O)[C@H](O)[C@H]2CO)c1)c1ccc(CN2CCCO2)cc1[N+](=O)[O-] [Compound 1020] | 118 | 129 |
| Cc1cc(Br)cc(NCc2cccc(CN3C[C@H](O)[C@@H](O)[C@H](O)[C@H]3CO)c2)c1 [Compound 1021, (2R,3R,4R,5S)-1-[(3-{[(3-bromo-5-methylphenyl)amino]methyl}phenyl)methyl]-2-(hydroxymethyl)piperidine-3,4,5-triol] | 6 | 1 |
| N#Cc1cc(Br)cc(NCc2cccc(CN3C[C@H](O)[C@@H](O)[C@H](O)[C@H]3CO)c2)c1 [Compound 1023, 3-bromo-5-{[(3-{[(2R,3R,4R,5S)-3,4,5-trihydroxy-2-(hydroxymethyl)piperidin-1-yl]methyl}phenyl)methyl]amino}benzonitrile] | 15 | 66 |
| Cc1cc(Br)cc(NCc2ccc(CN3C[C@H](O)[C@@H](O)[C@H](O)[C@H]3CO)cc2)c1 [Compound 1024, (2R,3R,4R,5S)-1-[(4-{[(3-bromo-5-methylphenyl)amino]methyl}phenyl)methyl]-2-(hydroxymethyl)piperidine-3,4,5-triol] | 8 | 14 |
| CS(=O)(=O)c1cc(Br)cc(NCc2ccc(CN3C[C@H](O)[C@@H](O)[C@H](O)[C@H]3CO)cc2)c1 [Compound 1025, (2R,3R,4R,5S)-1-[(4-{[(3-bromo-5-methanesulfonylphenyl)amino]methyl}phenyl)methyl]-2-(hydroxymethyl)piperidine-3,4,5-triol] | 21 | 2 |
| N#Cc1cc(Br)cc(NCc2ccc(CN3C[C@H](O)[C@@H](O)[C@H](O)[C@H]3CO)cc2)c1 [Compound 1026, 3-bromo-5-{[(4-{[(2R,3R,4R,5S)-3,4,5-trihydroxy-2-(hydroxymethyl)piperidin-1-yl]methyl}phenyl)methyl]amino}benzonitrile] | 7 | < 1 |
| OC[C@@H]1[C@@H](O)[C@H](O)[C@@H](O)CN1Cc1cccc(CNc2ccc(Br)cc2)c1 [Compound 1027, (2R,3R,4R,5S)-1-[(3-{[(4-bromophenyl)amino]methyl}phenyl)methyl]-2-(hydroxymethyl)piperidine-3,4,5-triol] | 22 | 23 |
| OC[C@@H]1[C@@H](O)[C@H](O)[C@@H](O)CN1Cc1ccc(CNc2ccc(Br)cc2)cc1 [Compound 1028, (2R,3R,4R,5S)-1-[(4-{[(4-bromophenyl)amino]methyl}phenyl)methyl]-2-(hydroxymethyl)piperidine-3,4,5-triol] | < 1 | 11 |
| O=[N+]([O-])c1cc(Br)ccc1NCc1cccc(CN2C[C@H](O)[C@@H](O)[C@H](O)[C@H]2CO)c1 [Compound 1029, (2R,3R,4R,5S)-1-[(3-{[(4-bromo-2-nitrophenyl)-amino]methyl}phenyl)methyl]-2-(hydroxymethyl)piperidine-3,4,5-triol] | 8 | < 1 |
| O=[N+]([O-])c1cc(Br)ccc1NCc1ccc(CN2C[C@H](O)[C@@H](O)[C@H](O)[C@H]2CO)cc1 [Compound 1030, (2R,3R,4R,5S)-1-[(4-{[(4-bromo-2-nitrophenyl)amino]methyl}phenyl)methyl]-2-(hydroxymethyl)piperidine-3,4,5-triol] | < 1 | < 1 |
| Cc1cc(NCc2cccc(CN3C[C@H](O)[C@@H](O)[C@H](O)[C@H]3CO)c2)cc(N2CCOCC2)c1 [Compound 1031, (2R,3R,4R,5S)-2-(hydroxymethyl)-1-{[3-({[3-methyl-5-(morpholin-4-yl)phenyl]amino}methyl)phenyl]methyl}piperidine-3,4,5-triol] | 93 | 288 |
| Cc1cc(NCc2cccc(CN3C[C@H](O)[C@@H](O)[C@H](O)[C@H]3CO)c2)cc(C2=COCCO2)c1 [Compound 1032, (2R,3R,4R,5S)-1-{[3-({[3-(5,6-dihydro-1,4-dioxin-2-yl)-5-methylphenyl]amino}methyl)phenyl]methyl}-2-(hydroxymethyl)piperidine-3,4,5-triol] | 16 | 36 |
| Cc1cc(NCc2cccc(CN3C[C@H](O)[C@@H](O)[C@H](O)[C@H]3CO)c2)cc(-c2ccc[nH]2)c1 [Compound 1033, (2R,3R,4R,5S)-2-(hydroxymethyl)-1-{[3-({[3-methyl-5-(1H-pyrrol-2-yl)phenyl]amino}methyl)phenyl]methyl}piperidine-3,4,5-triol] | 9 | 34 |
| Cc1cc(NCc2cccc(CN3C[C@H](O)[C@@H](O)[C@H](O)[C@H]3CO)c2)cc(-c2cccnn2)c1 [Compound 1034, (2R,3R,4R,5S)-2-(hydroxymethyl)-1-{[3-({[3-methyl-5-(pyridazin-3-yl)phenyl]amino}methyl)phenyl]methyl}piperidine-3,4,5-triol] | 20 | 57 |
| CS(=O)(=O)c1cc(NCc2cccc(CN3C[C@H](O)[C@@H](O)[C@H](O)[C@H]3CO)c2)cc(N2CCOCC2)c1 [Compound 1036, (2R,3R,4R,5S)-2-(hydroxymethyl)-1-{[3-({[3-methanesulfonyl-5-(morpholin-4-yl)phenyl]amino}methyl)phenyl]methyl}piperidine-3,4,5-triol] | 30 | 219 |
| N#Cc1cc(NCc2cccc(CN3C[C@H](O)[C@@H](O)[C@H](O)[C@H]3CO)c2)cc(N2CCOCC2)c1 [Compound 1042, 3-(morpholin-4-yl)-5-{[(3-{[(2R,3R,4R,5S)-3,4,5-trihydroxy-2-(hydroxymethyl)piperidin-1-yl]methyl}phenyl)methyl]amino}benzonitrile] | 30 | 163 |
| OC[C@@H]1[C@@H](O)[C@H](O)[C@@H](O)CN1CCCCCCNc1cc(Cl)cc(-c2ncco2)c1 [Compound 1211, (2R,3R,4R,5S)-1-(6-{[3-chloro-5-(1,3-oxazol-2-yl)phenyl]amino}hexyl)-2-(hydroxymethyl)piperidine-3,4,5-triol] | 112 | 72 |
| OC[C@@H]1[C@@H](O)[C@H](O)[C@@H](O)CN1CCCCCCNc1cc(Cl)cc(-c2ncccn2)c1 [Compound 1212, (2R,3R,4R,5S)-1-(6-{[3-chloro-5-(pyrimidin-2-yl)phenyl]amino}hexyl)-2-(hydroxymethyl)piperidine-3,4,5-triol] | 105 | 89 |
| COc1cc(NCCCCCCN2C[C@H](O)[C@@H](O)[C@H](O)[C@H]2CO)cc(-c2ncco2)c1 [Compound 1216, (2R,3R,4R,5S)-2-(hydroxymethyl)-1-(6-{[3-methoxy-5-(1,3-oxazol-2-yl)phenyl]amino}hexyl)piperidine-3,4,5-triol] | 67 | 796 |
| COc1cc(NCCCCCCN2C[C@H](O)[C@@H](O)[C@H](O)[C@H]2CO)cc(-c2ncccn2)c1 [Compound 1217, (2R,3R,4R,5S)-2-(hydroxymethyl)-1-(6-{[3-methoxy-5-(pyrimidin-2-yl)phenyl]amino}hexyl)piperidine-3,4,5-triol] | 128 | 225 |
| COc1cc(NCCCCCCN2C[C@H](O)[C@@H](O)[C@H](O)[C@H]2CO)cc(-c2ncc[nH]2)c1 [Compound 1219, (2R,3R,4R,5S)-2-(hydroxymethyl)-1-(6-{[3-(1H-imidazol-2-yl)-5-methoxyphenyl]amino}hexyl)piperidine-3,4,5-triol] | 93 | 64 |
| COCCCCCN(CCCNc1ccc(N=[N+]=[N-])cc1[N+](=O)[O-])CCCN1C[C@H](O)[C@@H](O)[C@H](O)[C@H]1CO [Compound 1221, (2R,3R,4R,5S)-1-[3-({3-[(4-azido-2-nitrophenyl)amino]propyl}(5-methoxypentyl)amino)propyl]-2-(hydroxymethyl)piperidine-3,4,5-triol] | 2230 | 424 |
